{
  "source": "paper doi:10.1101/2021.09.30.462449v1",
  "about": "(biorxiv, 2021)",
  "assay_in_all_cases": "biochemical",
  "conditions_in_all_cases": "read-out: % inhibition mean (Z'Lyte)",
  "key": {"[1]": {"target": "AURKC (Aurora C) (Homo sapiens, UniProt Q9UQB9)", "sequence (Q9UQB9 whole entry)": "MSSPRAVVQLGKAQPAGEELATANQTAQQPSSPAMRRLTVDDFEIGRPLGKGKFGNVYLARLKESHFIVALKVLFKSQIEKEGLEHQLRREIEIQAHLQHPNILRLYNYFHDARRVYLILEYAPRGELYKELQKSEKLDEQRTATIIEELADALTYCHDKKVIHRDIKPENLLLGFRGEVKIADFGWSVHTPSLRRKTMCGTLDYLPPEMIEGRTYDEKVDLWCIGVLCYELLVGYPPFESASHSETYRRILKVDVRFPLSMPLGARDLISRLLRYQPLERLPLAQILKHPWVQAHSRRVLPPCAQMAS"}, "[2]": {"target": "NEK1 (Homo sapiens, UniProt Q96PY6)"}, "[3]": {"target": "FGFR2 (Homo sapiens, UniProt P21802)"}, "[4]": {"target": "CDK2/cyclin A (Homo sapiens, UniProt P24941)"}, "[5]": {"target": "ADRBK1 (GRK2) (Homo sapiens, UniProt P25098)"}, "[6]": {"target": "MINK1 (Homo sapiens, UniProt Q8N4C8)"}, "[7]": {"target": "CSNK1D (CK1 delta) (Homo sapiens, UniProt P48730)", "sequence (P48730 whole entry)": "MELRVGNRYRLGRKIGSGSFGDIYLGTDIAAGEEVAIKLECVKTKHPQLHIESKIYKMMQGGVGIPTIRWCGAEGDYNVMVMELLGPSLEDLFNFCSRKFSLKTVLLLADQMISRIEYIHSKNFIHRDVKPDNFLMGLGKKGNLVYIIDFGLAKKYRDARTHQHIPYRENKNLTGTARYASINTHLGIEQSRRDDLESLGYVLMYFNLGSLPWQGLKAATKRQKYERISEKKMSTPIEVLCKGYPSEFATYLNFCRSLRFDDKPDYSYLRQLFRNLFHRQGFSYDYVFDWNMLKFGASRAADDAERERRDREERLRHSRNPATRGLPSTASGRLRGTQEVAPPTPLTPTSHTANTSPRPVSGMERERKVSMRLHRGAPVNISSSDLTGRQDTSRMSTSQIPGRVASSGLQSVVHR"}, "[8]": {"target": "STK25 (YSK1) (Homo sapiens, UniProt O00506)"}, "[9]": {"target": "KIT V559D (Homo sapiens, UniProt P10721, V559D)"}, "[10]": {"target": "CDK1/cyclin B (Homo sapiens, UniProt P06493)"}, "[11]": {"target": "BRAF (Homo sapiens, UniProt P15056)", "sequence (P15056 whole entry)": "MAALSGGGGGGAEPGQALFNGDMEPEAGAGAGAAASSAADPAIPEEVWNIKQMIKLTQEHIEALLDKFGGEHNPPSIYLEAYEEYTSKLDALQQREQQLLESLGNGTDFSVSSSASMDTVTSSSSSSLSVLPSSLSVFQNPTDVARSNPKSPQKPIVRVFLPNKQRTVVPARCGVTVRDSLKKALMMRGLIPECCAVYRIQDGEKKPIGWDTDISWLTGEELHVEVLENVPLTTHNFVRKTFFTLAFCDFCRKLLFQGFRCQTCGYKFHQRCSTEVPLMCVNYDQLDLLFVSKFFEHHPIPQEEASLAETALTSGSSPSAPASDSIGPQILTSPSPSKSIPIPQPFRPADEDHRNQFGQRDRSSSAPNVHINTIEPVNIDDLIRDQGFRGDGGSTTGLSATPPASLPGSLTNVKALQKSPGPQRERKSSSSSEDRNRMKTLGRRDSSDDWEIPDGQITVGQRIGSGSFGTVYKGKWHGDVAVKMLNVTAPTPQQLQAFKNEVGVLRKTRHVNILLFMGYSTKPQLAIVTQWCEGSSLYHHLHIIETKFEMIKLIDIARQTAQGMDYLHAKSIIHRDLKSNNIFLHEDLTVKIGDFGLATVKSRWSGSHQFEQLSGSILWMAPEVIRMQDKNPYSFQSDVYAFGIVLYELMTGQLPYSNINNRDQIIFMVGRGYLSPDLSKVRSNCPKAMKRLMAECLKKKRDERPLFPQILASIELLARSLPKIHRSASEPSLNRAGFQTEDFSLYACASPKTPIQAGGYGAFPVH"}, "[12]": {"target": "EPHA4 (Homo sapiens, UniProt P54764)"}, "[13]": {"target": "CAMK2D (CaMKII delta) (Homo sapiens, UniProt Q13557)"}, "[14]": {"target": "CSNK2A2 (CK2 alpha 2) (Homo sapiens, UniProt P19784)"}, "[15]": {"target": "CSF1R (FMS) (Homo sapiens, UniProt P07333)"}, "[16]": {"target": "MARK1 (MARK) (Homo sapiens, UniProt Q9P0L2)"}, "[17]": {"target": "CDK18/cyclin Y (Homo sapiens, UniProt Q07002)"}, "[18]": {"target": "PRKCZ (PKC zeta) (Homo sapiens, UniProt Q05513)"}, "[19]": {"target": "PAK7 (KIAA1264) (Homo sapiens, UniProt Q9P286)"}, "[20]": {"target": "ITK (Homo sapiens, UniProt Q08881)"}, "[21]": {"target": "SBK1 (Homo sapiens, UniProt Q52WX2)"}, "[22]": {"target": "KIT V559D V654A (Homo sapiens, UniProt P10721, V559D/V654A)"}, "[23]": {"target": "AMPK A1/B1/G1 (Homo sapiens, UniProt Q13131)", "sequence (Q13131 whole entry)": "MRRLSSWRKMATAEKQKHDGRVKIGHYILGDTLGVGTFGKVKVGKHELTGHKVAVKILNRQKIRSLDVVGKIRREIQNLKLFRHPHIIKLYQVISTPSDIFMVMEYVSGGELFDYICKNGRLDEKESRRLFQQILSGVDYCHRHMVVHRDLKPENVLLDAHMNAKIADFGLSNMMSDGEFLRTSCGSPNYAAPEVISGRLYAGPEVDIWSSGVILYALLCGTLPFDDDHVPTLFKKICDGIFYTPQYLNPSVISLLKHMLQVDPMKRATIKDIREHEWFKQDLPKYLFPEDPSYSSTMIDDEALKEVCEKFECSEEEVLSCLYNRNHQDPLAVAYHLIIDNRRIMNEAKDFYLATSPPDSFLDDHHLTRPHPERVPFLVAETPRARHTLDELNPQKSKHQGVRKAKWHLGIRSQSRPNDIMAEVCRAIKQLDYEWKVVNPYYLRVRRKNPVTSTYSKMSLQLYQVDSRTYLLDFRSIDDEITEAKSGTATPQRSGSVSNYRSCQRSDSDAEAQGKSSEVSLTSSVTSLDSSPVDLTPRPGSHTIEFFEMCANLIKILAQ", "sequence (P54619 whole entry partner)": "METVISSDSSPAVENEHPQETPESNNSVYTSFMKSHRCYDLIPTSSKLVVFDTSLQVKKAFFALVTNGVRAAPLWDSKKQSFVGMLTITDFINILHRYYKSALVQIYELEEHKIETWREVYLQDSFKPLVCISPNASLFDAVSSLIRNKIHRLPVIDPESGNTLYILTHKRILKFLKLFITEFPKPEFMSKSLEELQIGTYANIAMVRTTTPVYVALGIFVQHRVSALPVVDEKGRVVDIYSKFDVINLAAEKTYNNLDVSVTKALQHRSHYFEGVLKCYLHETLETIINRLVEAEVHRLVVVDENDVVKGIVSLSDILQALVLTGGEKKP", "sequence (Q9Y478 whole entry partner)": "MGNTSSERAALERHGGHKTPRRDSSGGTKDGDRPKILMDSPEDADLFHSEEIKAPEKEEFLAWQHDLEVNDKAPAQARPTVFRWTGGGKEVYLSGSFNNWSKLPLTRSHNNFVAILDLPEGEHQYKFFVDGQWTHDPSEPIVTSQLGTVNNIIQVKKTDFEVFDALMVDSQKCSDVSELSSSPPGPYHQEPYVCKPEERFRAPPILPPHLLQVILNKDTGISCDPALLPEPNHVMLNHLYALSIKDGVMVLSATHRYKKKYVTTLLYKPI"}, "[24]": {"target": "FLT3 (Homo sapiens, UniProt P36888)"}, "[25]": {"target": "CDC42 BPG (MRCKG) (Homo sapiens, UniProt Q6DT37)", "sequence (Q6DT37 whole entry)": "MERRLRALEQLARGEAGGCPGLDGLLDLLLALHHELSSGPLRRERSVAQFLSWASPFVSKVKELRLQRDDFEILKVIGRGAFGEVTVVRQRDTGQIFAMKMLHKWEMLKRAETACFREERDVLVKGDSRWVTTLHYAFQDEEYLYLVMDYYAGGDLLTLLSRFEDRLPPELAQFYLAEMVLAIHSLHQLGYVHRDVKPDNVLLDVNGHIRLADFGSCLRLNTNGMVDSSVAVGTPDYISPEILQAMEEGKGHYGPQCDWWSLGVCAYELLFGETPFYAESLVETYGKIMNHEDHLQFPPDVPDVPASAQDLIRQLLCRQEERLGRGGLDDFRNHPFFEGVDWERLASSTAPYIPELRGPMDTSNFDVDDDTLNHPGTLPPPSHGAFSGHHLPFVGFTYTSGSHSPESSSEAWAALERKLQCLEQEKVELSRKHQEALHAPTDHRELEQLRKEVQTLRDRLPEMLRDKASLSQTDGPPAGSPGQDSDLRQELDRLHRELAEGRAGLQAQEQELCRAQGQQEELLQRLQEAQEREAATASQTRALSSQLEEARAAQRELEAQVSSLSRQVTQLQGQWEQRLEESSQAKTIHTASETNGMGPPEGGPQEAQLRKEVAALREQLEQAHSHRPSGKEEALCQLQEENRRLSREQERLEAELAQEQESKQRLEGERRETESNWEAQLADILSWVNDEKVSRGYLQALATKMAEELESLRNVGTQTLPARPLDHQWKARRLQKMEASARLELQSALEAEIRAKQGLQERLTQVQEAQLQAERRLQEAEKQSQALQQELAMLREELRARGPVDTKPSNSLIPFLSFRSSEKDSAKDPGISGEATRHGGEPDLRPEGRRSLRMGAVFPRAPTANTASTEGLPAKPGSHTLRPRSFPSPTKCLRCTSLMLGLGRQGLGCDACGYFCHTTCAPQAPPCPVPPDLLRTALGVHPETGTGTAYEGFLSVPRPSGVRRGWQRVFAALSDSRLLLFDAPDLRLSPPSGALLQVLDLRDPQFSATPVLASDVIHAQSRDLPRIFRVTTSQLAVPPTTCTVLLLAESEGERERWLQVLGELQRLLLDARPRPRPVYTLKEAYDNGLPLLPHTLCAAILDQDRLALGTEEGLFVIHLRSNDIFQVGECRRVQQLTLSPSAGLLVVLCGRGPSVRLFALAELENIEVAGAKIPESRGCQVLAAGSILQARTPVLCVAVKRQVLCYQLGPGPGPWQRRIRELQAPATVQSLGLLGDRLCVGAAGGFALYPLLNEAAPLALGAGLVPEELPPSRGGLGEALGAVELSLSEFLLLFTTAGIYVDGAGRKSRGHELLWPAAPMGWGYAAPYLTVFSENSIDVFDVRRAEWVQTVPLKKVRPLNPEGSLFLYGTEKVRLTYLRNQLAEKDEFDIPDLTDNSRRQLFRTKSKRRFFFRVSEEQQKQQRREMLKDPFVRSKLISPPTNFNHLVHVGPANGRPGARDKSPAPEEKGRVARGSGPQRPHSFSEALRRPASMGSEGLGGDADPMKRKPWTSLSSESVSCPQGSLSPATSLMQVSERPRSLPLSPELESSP"}, "[26]": {"target": "MAP4K5 (KHS1) (Homo sapiens, UniProt Q9Y4K4)", "sequence (Q9Y4K4 whole entry)": "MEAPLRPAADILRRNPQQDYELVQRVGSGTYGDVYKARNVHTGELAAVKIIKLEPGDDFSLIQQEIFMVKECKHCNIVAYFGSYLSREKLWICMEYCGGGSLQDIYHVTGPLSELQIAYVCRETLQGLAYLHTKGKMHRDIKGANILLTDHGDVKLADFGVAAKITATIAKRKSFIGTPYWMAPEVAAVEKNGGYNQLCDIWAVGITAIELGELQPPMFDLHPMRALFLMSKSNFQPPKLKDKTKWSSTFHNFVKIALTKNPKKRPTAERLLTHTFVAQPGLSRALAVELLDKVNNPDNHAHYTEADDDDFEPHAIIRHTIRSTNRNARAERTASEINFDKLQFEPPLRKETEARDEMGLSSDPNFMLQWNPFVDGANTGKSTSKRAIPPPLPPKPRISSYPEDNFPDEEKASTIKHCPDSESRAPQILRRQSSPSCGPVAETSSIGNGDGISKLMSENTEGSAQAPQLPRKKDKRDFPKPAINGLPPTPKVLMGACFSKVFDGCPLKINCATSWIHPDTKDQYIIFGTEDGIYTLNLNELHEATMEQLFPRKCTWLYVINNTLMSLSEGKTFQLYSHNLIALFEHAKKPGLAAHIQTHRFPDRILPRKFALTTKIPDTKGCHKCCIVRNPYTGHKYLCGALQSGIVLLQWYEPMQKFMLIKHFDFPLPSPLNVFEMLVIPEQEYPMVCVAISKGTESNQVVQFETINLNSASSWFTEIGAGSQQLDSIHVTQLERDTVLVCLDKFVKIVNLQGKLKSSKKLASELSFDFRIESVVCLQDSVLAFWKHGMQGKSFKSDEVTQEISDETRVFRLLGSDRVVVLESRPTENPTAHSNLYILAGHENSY"}, "[27]": {"target": "TAOK2 (TAO1) (Homo sapiens, UniProt Q9UL54)"}, "[28]": {"target": "EPHB2 (Homo sapiens, UniProt P29323)"}, "[29]": {"target": "FGFR1 (Homo sapiens, UniProt P11362)"}},
  "data": [
    {"smiles": "COc1ccc2nc3cc(Cl)ccc3c(Nc3cc(CN4CCCC4)c(O)c(CN4CCCC4)c3)c2n1", "note": "[Pyronaridine, 4-[(7-Chloro-2-methoxybenzo[b][1,5]naphthyridin-10-yl)amino]-2,6-bis(1-pyrrolidinylmethyl)phenol phosphate (1:4)]", "values": [
      {"measurement": "inhibition at 1 µM", "setting": "[1]", "value": -11, "unit": "%"},
      {"measurement": "inhibition at 1 µM", "setting": "[2]", "value": -1, "unit": "%"},
      {"measurement": "inhibition at 1 µM", "setting": "[3]", "value": -1, "unit": "%"},
      {"measurement": "inhibition at 1 µM", "setting": "[4]", "value": 0, "unit": "%"},
      {"measurement": "inhibition at 1 µM", "setting": "[5]", "value": -3, "unit": "%"},
      {"measurement": "inhibition at 1 µM", "setting": "[6]", "value": 7, "unit": "%"},
      {"measurement": "inhibition at 1 µM", "setting": "[7]", "value": 5, "unit": "%"},
      {"measurement": "inhibition at 1 µM", "setting": "[8]", "value": -7, "unit": "%"},
      {"measurement": "inhibition at 1 µM", "setting": "[9]", "value": -1, "unit": "%"},
      {"measurement": "inhibition at 1 µM", "setting": "[10]", "value": 5, "unit": "%"},
      {"measurement": "inhibition at 1 µM", "setting": "[11]", "value": 4, "unit": "%"},
      {"measurement": "inhibition at 1 µM", "setting": "[12]", "value": -2, "unit": "%"},
      {"measurement": "inhibition at 1 µM", "setting": "[13]", "value": -5, "unit": "%"},
      {"measurement": "inhibition at 1 µM", "setting": "[14]", "value": 5, "unit": "%"},
      {"measurement": "inhibition at 1 µM", "setting": "[15]", "value": -3, "unit": "%"},
      {"measurement": "inhibition at 1 µM", "setting": "[16]", "value": -10, "unit": "%"},
      {"measurement": "inhibition at 1 µM", "setting": "[17]", "value": 1, "unit": "%"},
      {"measurement": "inhibition at 1 µM", "setting": "[18]", "value": -1, "unit": "%"},
      {"measurement": "inhibition at 1 µM", "setting": "[19]", "value": -5, "unit": "%"},
      {"measurement": "inhibition at 1 µM", "setting": "[20]", "value": 2, "unit": "%"},
      {"measurement": "inhibition at 1 µM", "setting": "[21]", "value": 6, "unit": "%"},
      {"measurement": "inhibition at 1 µM", "setting": "[22]", "value": -1, "unit": "%"},
      {"measurement": "inhibition at 1 µM", "setting": "[23]", "value": 5, "unit": "%"},
      {"measurement": "inhibition at 1 µM", "setting": "[24]", "value": 3, "unit": "%"},
      {"measurement": "inhibition at 1 µM", "setting": "[25]", "value": 1, "unit": "%"},
      {"measurement": "inhibition at 1 µM", "setting": "[26]", "value": 5, "unit": "%"},
      {"measurement": "inhibition at 1 µM", "setting": "[27]", "value": -1, "unit": "%"},
      {"measurement": "inhibition at 1 µM", "setting": "[28]", "value": 4, "unit": "%"},
      {"measurement": "inhibition at 1 µM", "setting": "[29]", "value": -5, "unit": "%"}
    ]}
  ]
}
